Read-outs that look alike come from different tables or passages of the source. Peptide text beside a SMILES is read from it. * marks the point of attachment. Cbz = O=C(OCc1ccccc1)*
Key:
[1] = biological target: i-20S β5i (Homo sapiens, UniProt P20618+P28062); details: ref [20], cited from earlier work
[2] = biological target: T1, Mtb20SOG (Mycobacterium tuberculosis, UniProt P9WHT9); details: ref [20], cited from earlier work
[3] = biological target: c-20S β5c (Homo sapiens, UniProt P20618+P28074); details: ref [20], cited from earlier work
[4] = test system: M. tuberculosis; details: under nitrosative stress; ref [20]; cited from earlier work
[5] = biological target: T1, Mtb20SOG; experiment: biochemical

T1 sequence (P9WHT9 58-291): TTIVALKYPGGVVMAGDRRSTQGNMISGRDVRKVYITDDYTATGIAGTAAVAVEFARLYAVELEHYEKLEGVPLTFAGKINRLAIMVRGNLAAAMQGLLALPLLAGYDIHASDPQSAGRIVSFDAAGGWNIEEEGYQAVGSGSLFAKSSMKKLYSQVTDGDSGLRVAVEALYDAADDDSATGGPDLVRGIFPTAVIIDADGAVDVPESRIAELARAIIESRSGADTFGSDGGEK
T1 sequence (P9WHU1 9-248 partner): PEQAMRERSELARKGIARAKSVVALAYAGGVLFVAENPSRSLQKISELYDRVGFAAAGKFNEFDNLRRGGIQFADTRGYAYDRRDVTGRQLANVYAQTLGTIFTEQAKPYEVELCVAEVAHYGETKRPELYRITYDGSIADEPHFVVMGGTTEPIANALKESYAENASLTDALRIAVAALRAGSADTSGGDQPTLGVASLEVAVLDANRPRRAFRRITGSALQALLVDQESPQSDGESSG

Compound	SIapp IC50β5i/IC50Mtb20SOG ([1]; apparent selectivity index)	IC50 ([1]; read-out: IC50 i-20S β5i (ANW), Ac-ANW-AMC) [µM]	affinity for Mtb 20S stronger than for human i-20S [1] [fold]	more potent against Mtb20SOG than DPLG-4 ([2]; DPLG-4 has a 4-isopropyl phenyl P1 group) [fold]	more potent against Mtb20SOG than ML9 ([2]; ML9 has a 2,4-difluorobenzyl P1 group) [fold]	IC50 ([2]; read-out: IC50 Mtb20SOG (LLVY), suc-LLVY-AMC) [µM]	SIapp IC50β5c/IC50Mtb20SOG ([3]; apparent selectivity index)	IC50 ([3]; read-out: IC50 c-20S β5c (LLVY), suc-LLVY-AMC) [µM]	affinity for Mtb 20S stronger than for human c-20S [3] [fold]	bactericidal activity against nonreplicating bacteria [4]	IC50 [5] [µM]
CCN(CC)C(=O)C[C@H](NC(=O)CCc1ccccc1)C(=O)N[C@@H](Cc1ccc(F)cc1)C(=O)NCc1cccc2ccccc12 [DPLG-2]	3647	54.7	3647	51	4	0.015	4667	70	4667	bactericidal activity	
CC(C)C[C@@H](C=O)NC(=O)[C@H](CC(C)C)NC(=O)[C@H](CC(C)C)NC(=O)OCc1ccccc1 [MG-132] (Cbz-Leu-Leu-Leu-aldehyde)											1.71 ± 0.079
